Results on 6 compounds are retold here after ChEMBL document CHEMBL1121931, “Synthesis and pharmacological evaluation of conformationally restricted phenothiazine analogues” (J Med Chem, 1982).

In general, IC50 refers to the concentration at which inhibition is half-maximal.

Experiment [1] is filed under the species Rattus norvegicus. The experiment is described as follows: Compound's potency to increase the level of the dopamine metabolite DOPAC levels in male wistar rats at 0.95 ug/g dose. The class given is functional.
In a further experiment the target is Dopamine receptor (Bos taurus, UniProt Q95136+P20288). The experiment can be described thus: Compound was tested for its ability to displace [3H]spiroperidol from dopamine receptor. The class given is protein assay.
For experiment [2], the species on record is Rattus norvegicus. The experiment can be described thus: Compound's potency to increase the level of the dopamine metabolite homovanillic acid (HVA), levels in male wistar rats at 0.54 ug/g dose. The class given is functional.
For experiment [3], the species on record is Rattus norvegicus. The experiment is described as follows: Compound's potency to increase the level of the dopamine metabolite homovanillic acid (HVA), levels in male wistar rats at 1.10 ug/g dose. The class given is functional.
The species named for experiment [4] is Rattus norvegicus. The experiment is described as follows: Compound's potency to increase the level of the dopamine metabolite DOPAC levels in male wistar rats at 1.26 ug/g dose. The class given is functional.
Experiment [5] is filed under the species Rattus norvegicus. The experiment is described as follows: Compound's potency to increase the level of the dopamine metabolite homovanillic acid (HVA), levels in male wistar rats at 0.39 ug/g dose. The class given is functional.
For experiment [6], the species on record is Rattus norvegicus. The experiment is described as follows: Compound's potency to increase the level of the dopamine metabolite DOPAC levels in male wistar rats at 0.62 ug/g dose. The class given is functional.
For experiment [7], the species on record is Rattus norvegicus. The experiment is described as follows: Compound's potency to increase the level of the dopamine metabolite homovanillic acid (HVA), levels in male wistar rats at 0.44 ug/g dose. The class given is functional.
Experiment [8] is filed under the species Rattus norvegicus. The experiment is described as follows: Compound's potency to increase the level of the dopamine metabolite DOPAC levels in male wistar rats at 0.73 ug/g dose. The class given is functional.
For experiment [9], the species on record is Rattus norvegicus. The experiment is described as follows: Compound's potency to increase the level of the dopamine metabolite DOPAC levels in male wistar rats at 0.6 ug/g dose. The class given is functional.
For experiment [10], the species on record is Rattus norvegicus. The experiment can be described thus: Compound's potency to increase the level of the dopamine metabolite homovanillic acid (HVA), levels in male wistar rats at 0.63 ug/g dose. The class given is functional.
The species named for experiment [11] is Rattus norvegicus. The experiment can be described thus: Compound's potency to increase the level of the dopamine metabolite DOPAC levels in male wistar rats at 1.15 ug/g dose. The class given is functional.

Consider `CN(C)CC1Cc2cccc3c2N(C1)c1cc(Cl)ccc1S3` (stereo not given), for which the Control amounted to 89% in the experiment filed under Rattus norvegicus [1] and 70% in the experiment filed under Rattus norvegicus [2]. Also, the half-maximal inhibitory concentration (IC50) on Dopamine receptor amounted to 13000 nM.
For `CN(C)CC1Cc2c(Cl)ccc3c2N(C1)c1ccccc1S3` (stereo not given), the figures for the Control in the experiment listed under Rattus norvegicus [3] and in the experiment filed under Rattus norvegicus [4] were 157% and 118%, respectively. Further, the IC50 on Dopamine receptor stood at 1200 nM.
In the case of `CN(C)C1CCN2c3cc(Cl)ccc3Sc3cccc1c32` (stereo not given), the Control in the experiment filed under Rattus norvegicus [5] was 88%; in the experiment listed under Rattus norvegicus [6] it was 98%.
With `CN(C)C1CCN2c3ccccc3Sc3ccc(Cl)c1c32` (stereo not given), the Control in the experiment listed under Rattus norvegicus [7] turned out to be 100%; in the experiment listed under Rattus norvegicus [8], 115%.
Consider `CN(C)C1CCN2c3ccccc3Sc3cccc1c32` (stereo not given), for which the Control is 93% in the experiment listed under Rattus norvegicus [7] and 95% in the experiment listed under Rattus norvegicus [9].
Turning to `CN(C)CC1Cc2cccc3c2N(C1)c1ccccc1S3` (stereo not given), the figures for the Control in the experiment listed under Rattus norvegicus [10] and in the experiment filed under Rattus norvegicus [11] were 90% and 107%, respectively. On Dopamine receptor, this compound gave an IC50 of 0.0014 nM.
